MIC data for seven compounds are collected here from ChEMBL document CHEMBL1649169, “Multiresistance in Pasteurella multocida is mediated by coexistence of small plasmids” (2009).

Holding throughout (type): functional
For experiment [1], the system named is Pasteurella multocida. The experiment in a line: Antibacterial activity against Pasteurella multocida ATCC 43137 by CLSI M31-A3 broth microdilution method.
For experiment [2], the system named is Pasteurella multocida. Kind of experiment: Antibacterial activity against Pasteurella multocida BB1034 harboring plasmid pB1000 bearing blaROB-1 gene and plasmid pB1001 bearing tetB gene by CLSI M31-A3 broth microdilution method. (Broth dilution looks for growth in wells or tubes with falling amounts of substance.)
Experiment [3] concerns Pasteurella multocida. The experiment in a line: Antibacterial activity against Pasteurella multocida BB1035 harboring plasmid pB1000 bearing blaROB-1 gene and plasmid pB1005 bearing strA, sul2 genes by CLSI M31-A3 broth microdilution method.
Experiment [4] has as its system Pasteurella multocida. Kind of experiment: Antibacterial activity against Pasteurella multocida BB1036 harboring plasmid pB1000 bearing blaROB-1 gene and plasmid pB1005 bearing strA, sul2 genes by CLSI M31-A3 broth microdilution method.
Experiment [5] relates to Pasteurella multocida. Kind of experiment: Antibacterial activity against Pasteurella multocida BB1037 harboring plasmid pB1000 bearing blaROB-1 gene and plasmid pB1005 bearing strA, sul2 genes by CLSI M31-A3 broth microdilution method.
The subject of experiment [6] is Pasteurella multocida. Kind of experiment: Antibacterial activity against Pasteurella multocida BB1038 harboring plasmid pB1000 bearing blaROB-1 gene and plasmid pB1005 bearing strA, sul2 genes by CLSI M31-A3 broth microdilution method.
For experiment [7], the system named is Pasteurella multocida. The experiment in a line: Antibacterial activity against Pasteurella multocida BB1039 harboring plasmid pB1000 bearing blaROB-1 gene and plasmid pB9956 bearing tetH gene by CLSI M31-A3 broth microdilution method.
In experiment [8] the test system is Pasteurella multocida. The experiment in a line: Antibacterial activity against Pasteurella multocida BB1040 harboring plasmid pB1000 bearing blaROB-1 gene and plasmid pB9956 bearing tetH gene by CLSI M31-A3 broth microdilution method.
For experiment [9], the system named is Pasteurella multocida. Kind of experiment: Antibacterial activity against Pasteurella multocida BB1041 harboring plasmid pB1000 bearing blaROB-1 gene and plasmid pB9956 bearing tetH gene by CLSI M31-A3 broth microdilution method.
The test system of experiment [10] is Pasteurella multocida. Kind of experiment: Antibacterial activity against Pasteurella multocida BB1042 harboring plasmid pB1000 bearing blaROB-1 gene and plasmid pB9956 bearing tetH gene by CLSI M31-A3 broth microdilution method.
The test system of experiment [11] is Pasteurella multocida. The experiment in a line: Antibacterial activity against Pasteurella multocida BB1043 harboring plasmid pB1000 bearing blaROB-1 gene and plasmid pB9956 bearing tetH gene by CLSI M31-A3 broth microdilution method.
Experiment [12] deals with Pasteurella multocida. Kind of experiment: Antibacterial activity against Pasteurella multocida BB1044 harboring plasmid pB1000 bearing blaROB-1 gene, plasmid 1006 bearing tetO gene and plasmid pB1005 bearing strA, sul2 genes by CLSI M31-A3 broth microdilution method.
Experiment [13] deals with Pasteurella multocida. Kind of experiment: Antibacterial activity against Pasteurella multocida BB1045 harboring plasmid pB1000 bearing blaROB-1 gene and plasmid pB9956 bearing tetH gene by CLSI M31-A3 broth microdilution method.
The subject of experiment [14] is Pasteurella multocida. The experiment in a line: Antibacterial activity against Pasteurella multocida BB1046 harboring plasmid pB1003 bearing blaROB-1 gene and plasmid pB1002 bearing strA, sul2 genes by CLSI M31-A3 broth microdilution method.

Structures are written as SMILES. In brackets after ≈: the same amount, converted by molar mass. Where only a bound is given, the exact number is not on record here.

Turning to `CC1(C)S[C@@H]2[C@H](NC(=O)[C@H](N)c3ccc(O)cc3)C(=O)N2[C@H]1C(=O)O` [AMOXICILLIN], the MIC (as a rule, the lowest concentration found to suppress growth) in the experiment with Pasteurella multocida [1] is not above 1 µg/mL; against Pasteurella multocida [2], more than 256 µg/mL; against Pasteurella multocida [3] it was more than 256 µg/mL; with Pasteurella multocida [4], more than 256 µg/mL; against Pasteurella multocida [5], more than 256 µg/mL; with Pasteurella multocida [6], more than 256 µg/mL. In addition, the minimum inhibitory concentration (MIC) in the experiment on Pasteurella multocida [7], with Pasteurella multocida [8], against Pasteurella multocida [9], in the experiment with Pasteurella multocida [10], with Pasteurella multocida [11] and in the experiment on Pasteurella multocida [12] was more than 256 µg/mL each time. Also, the minimal inhibitory concentration (MIC) in the experiment with Pasteurella multocida [13] and against Pasteurella multocida [14] was more than 256 µg/mL throughout.
For the compound `N[C@@H](C(=O)N[C@@H]1C(=O)N2C(C(=O)O)=C(Cl)CS[C@H]12)c1ccccc1` [CEFACLOR ANHYDROUS], the MIC in the experiment with Pasteurella multocida [1] is not above 1 µg/mL; against Pasteurella multocida [2] it was more than 16 µg/mL; against Pasteurella multocida [3] it was more than 16 µg/mL; against Pasteurella multocida [4], more than 16 µg/mL; in the experiment with Pasteurella multocida [5], more than 16 µg/mL; in the experiment on Pasteurella multocida [6], more than 16 µg/mL. Further, the minimum inhibitory concentration (MIC) against Pasteurella multocida [7], in the experiment on Pasteurella multocida [8], in the experiment on Pasteurella multocida [9], against Pasteurella multocida [10], against Pasteurella multocida [11] and against Pasteurella multocida [12] was more than 16 µg/mL in each case. The minimum inhibitory concentration (MIC) with Pasteurella multocida [13] and against Pasteurella multocida [14] was more than 16 µg/mL in each case.
As for `CO/N=C(\C(=O)N[C@@H]1C(=O)N2C(C(=O)O)=C(COC(C)=O)CS[C@H]12)c1csc(N)n1` [CEFOTAXIME], the MIC is not above 0.06 µg/mL against Pasteurella multocida [1]; 1 µg/mL (≈ 2.2 µM) against Pasteurella multocida [2]; 0.5 µg/mL (≈ 1.1 µM) in the experiment on Pasteurella multocida [3]; 1 µg/mL (≈ 2.2 µM) in the experiment with Pasteurella multocida [4]; 1 µg/mL (≈ 2.2 µM) in the experiment with Pasteurella multocida [5]; 1 µg/mL (≈ 2.2 µM) against Pasteurella multocida [6]. Also, the MIC with Pasteurella multocida [7], in the experiment on Pasteurella multocida [8], with Pasteurella multocida [9], in the experiment with Pasteurella multocida [10], in the experiment with Pasteurella multocida [11] and in the experiment on Pasteurella multocida [12] was 1 µg/mL (≈ 2.2 µM) each time. In addition, the MIC against Pasteurella multocida [13] amounted to 1 µg/mL (≈ 2.2 µM); against Pasteurella multocida [14] it was 0.5 µg/mL (≈ 1.1 µM).
With `CC1(C)S[C@@H]2[C@H](NC(=O)Cc3ccccc3)C(=O)N2[C@H]1C(=O)O` [PENICILLIN G], the MIC against Pasteurella multocida [1] is not above 0.03 µg/mL; against Pasteurella multocida [2] it was more than 16 µg/mL; in the experiment with Pasteurella multocida [3], more than 16 µg/mL; against Pasteurella multocida [4] it was more than 16 µg/mL; in the experiment on Pasteurella multocida [5] it was more than 16 µg/mL; against Pasteurella multocida [6], more than 16 µg/mL. Moreover, the MIC against Pasteurella multocida [7], against Pasteurella multocida [8], in the experiment on Pasteurella multocida [9], with Pasteurella multocida [10], against Pasteurella multocida [11] and in the experiment with Pasteurella multocida [12] was more than 16 µg/mL throughout. Further, the minimum inhibitory concentration (MIC) with Pasteurella multocida [13] and with Pasteurella multocida [14] was more than 16 µg/mL in each case.
Consider `CN[C@@H]1[C@H](O[C@H]2[C@H](O[C@H]3[C@H](O)[C@@H](O)[C@H](N=C(N)N)[C@@H](O)[C@@H]3N=C(N)N)O[C@@H](C)[C@]2(O)C=O)O[C@@H](CO)[C@H](O)[C@H]1O` [STREPTOMYCIN], for which the minimal inhibitory concentration (MIC) in the experiment with Pasteurella multocida [1] was 8 µg/mL (≈ 13.8 µM); in the experiment on Pasteurella multocida [2] it was 32 µg/mL (≈ 55 µM); with Pasteurella multocida [3], more than 256 µg/mL; against Pasteurella multocida [4] it was more than 256 µg/mL; against Pasteurella multocida [5] it was more than 256 µg/mL; with Pasteurella multocida [6] it was more than 256 µg/mL. Besides, the MIC in the experiment on Pasteurella multocida [7] was 8 µg/mL (≈ 13.8 µM); in the experiment on Pasteurella multocida [8] it was 16 µg/mL (≈ 27.5 µM); with Pasteurella multocida [9] it was 16 µg/mL (≈ 27.5 µM); in the experiment with Pasteurella multocida [10], 8 µg/mL (≈ 13.8 µM); in the experiment with Pasteurella multocida [11] it was 8 µg/mL (≈ 13.8 µM); with Pasteurella multocida [12] it was more than 256 µg/mL. For the same compound, the values for the MIC in the experiment with Pasteurella multocida [13] and against Pasteurella multocida [14] were 16 µg/mL (≈ 27.5 µM) and more than 256 µg/mL, respectively.
Turning to `Cc1cc(NS(=O)(=O)c2ccc(N)cc2)no1` [SULFAMETHOXAZOLE], the minimal inhibitory concentration (MIC) in the experiment on Pasteurella multocida [1], against Pasteurella multocida [2], in the experiment on Pasteurella multocida [3], with Pasteurella multocida [4], against Pasteurella multocida [5] and against Pasteurella multocida [6] was more than 256 µg/mL throughout. Besides, the MIC with Pasteurella multocida [7], with Pasteurella multocida [8], against Pasteurella multocida [9], against Pasteurella multocida [10], in the experiment with Pasteurella multocida [11] and against Pasteurella multocida [12] was more than 256 µg/mL throughout. In addition, the minimal inhibitory concentration (MIC) against Pasteurella multocida [13] and against Pasteurella multocida [14] was more than 256 µg/mL in each case.
Turning to `CN(C)[C@@H]1C(O)=C(C(N)=O)C(=O)[C@@]2(O)C(O)=C3C(=O)c4c(O)cccc4[C@@](C)(O)[C@H]3C[C@@H]12` [TETRACYCLINE], the MIC with Pasteurella multocida [1] turned out to be 2 µg/mL (≈ 4.5 µM); in the experiment with Pasteurella multocida [2], 16 µg/mL (≈ 36 µM); in the experiment with Pasteurella multocida [3], 2 µg/mL (≈ 4.5 µM); in the experiment on Pasteurella multocida [4], 2 µg/mL (≈ 4.5 µM); in the experiment on Pasteurella multocida [5] it was 2 µg/mL (≈ 4.5 µM); with Pasteurella multocida [6] it was 2 µg/mL (≈ 4.5 µM). Moreover, the MIC in the experiment with Pasteurella multocida [7], with Pasteurella multocida [8], against Pasteurella multocida [9], in the experiment with Pasteurella multocida [10], against Pasteurella multocida [11] and in the experiment with Pasteurella multocida [12] was 32 µg/mL (≈ 72 µM) throughout. Besides, the MIC turned out to be 32 µg/mL (≈ 72 µM) against Pasteurella multocida [13] and 1 µg/mL (≈ 2.25 µM) in the experiment on Pasteurella multocida [14].
